Values quoted from earlier work as cited in US20230211112A1, “Method for emergency relief of acute ischemic attacks” (priority 2020, published 2023).

System: rats
Conditions: confined space

Compound: [Ar] [argon]
- oxygen consumption reduced compared to the control (average, vs air environment, same initial oxygen concentration): 27%
- maximum survival time increased (vs air environment control): 33%

Compound: [Xe] [xenon]
- oxygen consumption decreased (vs air environment control): 3.2 times
- time of maximum animal survival increased (vs air environment control): 3.5 times
